Data taken from PubChem BioAssay (NCI).
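48-hour exposure; five concentrations; linearly interpolated endpoints. GI50 marks 50% less growth. TGI marks complete inhibition of growth.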

How the values were obtained:
Assay in all cases: DTP human tumour cell line panel, 48 h
[1] = test system: LXFL 529 NSCLC
[2] = test system: SN12K1 renal
[3] = test system: MDA-MB-231 breast
[4] = test system: DU-145 prostate
[5] = test system: MDA-MB-435
[6] = test system: BT-549 breast
[7] = test system: MDA-N

Row | SMILES | TGI [1] | TGI [3] | TGI [4] | TGI [5] | TGI [6] | other results
1 | CCOC(=O)C1=C(C)N(C2OC(COC(=O)c3ccccc3)C(OC(=O)c3ccccc3)C2OC(=O)c2ccccc2)C(=S)NC1c1ccccc1 (stereo unspecified) | > 100000 nM |  |  |  |  | 
2 | C(=C/c1nc2ccccc2o1)/c1ccc2c(c1)OCO2 |  |  |  |  |  | TGI [2]: 42000 nM
3 | CN/N=C(\C(=O)Nc1ccc(C)c(C)c1)C(C(=O)OC)c1nc2ccc([N+](=O)[O-])cc2[nH]c1=O (stereo unspecified) | > 100000 nM |  |  |  |  | 
4 | CCOC(C)OC1CC(n2cc(C)c(=O)[nH]c2=O)OC1CO (stereo unspecified) | > 100000 nM |  |  |  |  | 
5 | C=C(C)[C@@H]1CC[C@]2(CO)CC[C@]3(C)[C@H](CC[C@@H]4[C@@]5(C)CC[C@H](NCO)C(C)(C)[C@@H]5CC[C@]43C)[C@@H]12 |  | 1750 nM | 1580 nM | 1780 nM | 1530 nM | GI50 [3]: 995 nM; GI50 [4]: 878 nM; GI50 [5]: 896 nM; GI50 [6]: 792 nM
6 | CCOC(=O)C(C)N1C(=O)c2ccccc2S1(=O)=O (stereo unspecified) |  |  |  |  |  | TGI [2]: > 100000 nM
7 | C=C(C)[C@@H]1CC[C@]2(C(=O)NC(C)=O)CC[C@]3(C)[C@H](CC[C@@H]4[C@@]5(C)CCCNC(C)(C)[C@@H]5CC[C@]43C)[C@@H]12 |  | 3290 nM | 2940 nM | 3110 nM | 3280 nM | GI50 [3]: 1820 nM; GI50 [4]: 1570 nM; GI50 [5]: 1550 nM; GI50 [6]: 1680 nM
8 | CN1CN(C(=O)N2CN(C)C(=O)N(C)C2)CN(C)C1=O | > 100000 nM |  |  |  |  | 
9 | NC(=O)Oc1ccccc1 |  | > 100000 nM | > 100000 nM | > 100000 nM |  | TGI [7]: > 100000 nM
10 | O=C(CCC1CCCCN1)Nc1ccc2c(c1)C(=O)c1ccc(NC(=O)CCN3CCCCC3)cc1C2=O (stereo unspecified) | 2700 nM |  |  |  |  | 
11 | CCOC(=O)Cn1c(=O)c(C)cn(COCCO)c1=O |  | > 100000 nM | > 100000 nM | > 100000 nM | > 100000 nM | TGI [7]: > 100000 nM
12 | COc1ccc(C2=NC(c3ccc(Cl)cc3)C(c3ccc(Cl)cc3)N2C(=O)N2CCNC(=O)C2)c(OC(C)C)c1 (stereo unspecified) |  | 3890 nM | 3540 nM | 3630 nM | 4030 nM | GI50 [3]: 1980 nM; GI50 [4]: 1800 nM; GI50 [5]: 1920 nM; GI50 [6]: 2030 nM
13 | CC1OC(=O)C(C(C)C)NC(=O)C(C(C)C)OC(=O)C(C(C)C)NC(=O)C(C)OC(=O)C(C(C)C)NC(=O)C(C(C)C)OC(=O)C(C(C)C)NC(=O)C(C)OC(=O)C(C(C)C)NC(=O)C(C(C)C)OC(=O)C(C(C)C)NC1=O (stereo unspecified) |  |  |  |  |  | TGI [2]: 816 nM
